Consider 20 compounds from US10793568B2, “Hormone receptor modulators for treating metabolic conditions and disorders” (ARDELYX, INC., priority 2016, dated 2020).

The assay has as its target ligand binding domain of human FXR (Homo sapiens (Human), UniProt Q96RI1). The assay is described as follows: FXR ligand binding assay (LanthaScreen TR-FRET, SRC2-2 peptide recruitment). To be noted: for Emax: extent of activation relative to GW4064, read-out: % Efficacy. The method, then: The affinity of FXR ligands for the ligand binding domain of FXR was determined using a commercially available human FXR ligand binding assay (LanthaScreen, Thermofisher Cat # PV4833). […] Binding of FXR ligands to the FXR ligand binding domain promotes binding of the fluorescein-labelled SRC2-2 peptide. This causes a FRET signal between the terbium-labelled anti-GST antibody and the fluorescein-labelled SRC peptide which are both bound to the FXR ligand binding domain.
Test compounds are dissolved in DMSO and a 3-fold serial dilution series is generated, then further diluted into assay buffer. The compounds are mixed with 5 nM GST-tagged FXR ligand binding domain, 5 nM Tb-labelled anti-GST antibody and 500 nM fluorescein-labelled SRC2-2 peptide in a pH7.4 buffer. The reaction is incubated at room temperature for 1 hour, then the FRET signal is measured as the ratio of the 520 nm/495 nm emission following excitation at 340 nm. The change in FRET signal is plotted against the test article concentration and fit to a 3-parameter logistical equation. The concentration required to produce 50% activation is expressed as pEC50 (−log EC50), and the extent of activation is expressed relative to GW4064 as % activation.

Where [1] appears, read: -log EC50, concentration required to produce 50% activation.

Sequence of ligand binding domain of human FXR (Q96RI1 262-486): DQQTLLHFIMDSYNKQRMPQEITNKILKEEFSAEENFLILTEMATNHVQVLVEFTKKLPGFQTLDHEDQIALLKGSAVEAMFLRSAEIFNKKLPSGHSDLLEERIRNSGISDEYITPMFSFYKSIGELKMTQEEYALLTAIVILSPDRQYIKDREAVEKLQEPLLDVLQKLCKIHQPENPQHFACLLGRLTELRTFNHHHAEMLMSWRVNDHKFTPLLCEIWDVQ

Turning to `CC[C@H]1[C@H]2C[C@H](C[C@@H]2OCc2c(-c3c(Cl)cccc3Cl)noc2C2CC2)N1c1ccc(C(=O)O)cc1` [Compound I-366, 4-[(1R,3S,4R,5S)-5-[[5-cyclopropyl-3-(2,6-dichlorophenyl)-1,2-oxazol-4-yl]methoxy]-3-ethyl-2-azabicyclo[2.2.1]heptan-2-yl]benzoic acid], the Emax amounted to 56%. This compound also displayed a pEC50 under setting [1] of 6.2. As for `C[C@@H]1[C@@H]2C[C@@H](C[C@H]2OCc2c(-c3c(Cl)cccc3Cl)noc2C2CC2)N1c1ccc(C(=O)O)nc1` [Compound I-367, 5-[(1S,3R,4S,5R)-5-[[5-cyclopropyl-3-(2,6-dichlorophenyl)-1,2-oxazol-4-yl]methoxy]-3-methyl-2-azabicyclo[2.2.1]heptan-2-yl]pyridine-2-carboxylic Acid], the Emax was 61%. The pEC50 under setting [1] came to 6.4.

For `C[C@H]1[C@H]2C[C@H](C[C@@H]2OCc2c(-c3c(Cl)cccc3Cl)noc2C2CC2)N1c1ccc(C(=O)O)cc1` [Compound I-361, 4-[(1R,3S,4R,5S)-5-[[5-cyclopropyl-3-(2,6-dichlorophenyl)-1,2-oxazol-4-yl]methoxy]-3-methyl-2-azabicyclo[2.2.1]heptan-2-yl]benzoic acid], the Emax turned out to be 52%. Also, under setting [1], the pEC50 turned out to be 6. For `O=C(O)c1cnc(N2C(=O)[C@@H]3C[C@H]2C[C@H]3OCc2c(-c3c(Cl)cccc3Cl)noc2C2CC2)cn1` [Compound I-324, 5-[(1S,4R,5R)-5-{[5-cyclopropyl-3-(2,6-dichlorophenyl)-1,2-oxazol-4-yl]methoxy}-3-oxo-2-azabicyclo[2.2.1]heptan-2-yl]pyrazine-2-carboxylic Acid] the same measures were 140% and 7.1. For `O=C(O)c1ncc(N2C(=O)[C@@H]3C[C@H]2C[C@H]3OCc2c(-c3c(Cl)cccc3Cl)noc2C2CC2)cn1` [Compound I-323, 5-[(1S,4R,5R)-5-{[5-cyclopropyl-3-(2,6-dichlorophenyl)-1,2-oxazol-4-yl]methoxy}-3-oxo-2-azabicyclo[2.2.1]heptan-2-yl]pyrimidine-2-carboxylic Acid] the same measures were 103% and 6.4. For `C[C@@H]1[C@@H]2C[C@@H](C[C@H]2OCc2c(-c3c(Cl)cccc3Cl)noc2C2CC2)N1c1ccc(C(=O)O)c(F)c1` [Compound I-362, 4-[(1S,3R,4S,5R)-5-[[5-cyclopropyl-3-(2,6-dichlorophenyl)-1,2-oxazol-4-yl]methoxy]-3-methyl-2-azabicyclo[2.2.1]heptan-2-yl]-2-fluorobenzoic acid] the same measures were 72% and 7.2. With `C[C@H]1[C@H]2C[C@H](C[C@@H]2OCc2c(-c3c(Cl)cccc3Cl)noc2C2CC2)N1c1ccc(C(=O)O)nc1` [Compound I-368, 5-[(1R,3S,4R,5S)-5-[[5-cyclopropyl-3-(2,6-dichlorophenyl)-1,2-oxazol-4-yl]methoxy]-3-methyl-2-azabicyclo[2.2.1]heptan-2-yl]pyridine-2-carboxylic acid], the Emax is 22%. The compound also yielded a pEC50 under setting [1] of 5.8. Take `O=C(NS(=O)(=O)[C@@H]1CCC[C@H]1O)c1ccc(N2C(=O)[C@@H]3C[C@H]2C[C@H]3OCc2c(-c3c(Cl)cccc3Cl)noc2C2CC2)cn1` [Compound I-350, 5-[(1S,4R,5R)-5-{[5-cyclopropyl-3-(2,6-dichlorophenyl)-1,2-oxazol-4-yl]methoxy}-3-oxo-2-azabicyclo[2.2.1]heptan-2-yl]-N-{[(1R,2R)-2-hydroxycyclopentyl]sulfonyl}pyridine-2-carboxamide]: the Emax came to 170%. This compound also displayed a pEC50 under setting [1] of 8.1.

Consider `C[C@@H]1[C@@H]2C[C@@H](C[C@H]2OCc2c(-c3c(Cl)cccc3Cl)noc2C2CC2)N1c1ccc(C(=O)NS(=O)(=O)C2CCOCC2)nc1` [Compound I-371, 5-[(1S,3R,4S,5R)-5-[[5-cyclopropyl-3-(2,6-dichlorophenyl)-1,2-oxazol-4-yl]methoxy]-3-methyl-2-azabicyclo[2.2.1]heptan-2-yl]-N-(oxane-4-sulfonyl)pyridine-2-carboxamide], for which the Emax worked out at 57%. Also, under setting [1], the pEC50 is reported as 6.7. The matching figures for `O=C(NS(=O)(=O)C1CCCC1)c1ccc(N2C(=O)[C@@H]3C[C@H]2C[C@H]3OCc2c(-c3c(Cl)cccc3Cl)noc2C2CC2)cn1` [Compound I-353, N-(cyclopentylsulfonyl)-5-((1S,4R,5R)-5-((5-cyclopropyl-3-(2,6-dichlorophenyl)isoxazol-4-yl)methoxy)-3-oxo-2-azabicyclo[2.2.1]heptan-2-yl)picolinamide]: 159% and 8.3. The compound `O=C(O)CCc1ccc(N2C(=O)[C@@H]3C[C@H]2C[C@H]3OCc2c(-c3c(Cl)cccc3Cl)noc2C2CC2)cn1` [Compound I-327, 3-{5-[(1S,4R,5R)-5-{[5-cyclopropyl-3-(2,6-dichlorophenyl)-1,2-oxazol-4-yl]methoxy}-3-oxo-2-azabicyclo[2.2.1]heptan-2-yl]pyridin-2-yl}propanoic Acid] yielded a negative-log EC50 (pEC50) under setting [1] greater than 5.5. Consider `C[C@H]1[C@H]2C[C@H](C[C@@H]2OCc2c(-c3c(Cl)cccc3Cl)noc2C2CC2)N1c1ccc(C(=O)O)cn1` [Compound I-370, 6-[(1R,3S,4R,5S)-5-[[5-cyclopropyl-3-(2,6-dichlorophenyl)-1,2-oxazol-4-yl]methoxy]-3-methyl-2-azabicyclo[2.2.1]heptan-2-yl]pyridine-3-carboxylic acid], for which the Emax turned out to be 79%. In addition, under setting [1], the pEC50 amounted to 4.5.

As to `CC[C@@H]1[C@@H]2C[C@@H](C[C@H]2OCc2c(-c3c(Cl)cccc3Cl)noc2C2CC2)N1c1ccc(C(=O)O)cc1` [Compound I-365, 4-[(1S,3R,4S,5R)-5-[[5-cyclopropyl-3-(2,6-dichlorophenyl)-1,2-oxazol-4-yl]methoxy]-3-ethyl-2-azabicyclo[2.2.1]heptan-2-yl]benzoic acid], the Emax came out at 67%. Under setting [1], the negative-log EC50 (pEC50) stood at 6.4. Turning to `O=C(O)c1ccc(N2C(=O)[C@@H]3C[C@H]2C[C@H]3OCc2c(-c3c(Cl)cccc3Cl)noc2C2CC2)nn1` [Compound I-325, 6-[(1S,4R,5R)-5-{[5-cyclopropyl-3-(2,6-dichlorophenyl)-1,2-oxazol-4-yl]methoxy}-3-oxo-2-azabicyclo[2.2.1]heptan-2-yl]pyridazine-3-carboxylic Acid], the Emax was 104%. Under setting [1], this compound had a pEC50 of 6.6. For `C[C@H]1[C@H]2C[C@H](C[C@@H]2OCc2c(-c3c(Cl)cccc3Cl)noc2C2CC2)N1c1ccc(C(=O)NS(=O)(=O)C2CCOCC2)cn1` [Compound I-374, 6-[(1R,3S,4R,5S)-5-[[5-cyclopropyl-3-(2,6-dichlorophenyl)-1,2-oxazol-4-yl]methoxy]-3-methyl-2-azabicyclo[2.2.1]heptan-2-yl]-N-(oxane-4-sulfonyl)pyridine-3-carboxamide] the same measures were 48% and 6. The matching figures for `O=C(NS(=O)(=O)C1CCOCC1)c1ccc(N2C(=O)[C@@H]3C[C@H]2C[C@H]3OCc2c(-c3c(Cl)cccc3Cl)noc2C2CC2)cn1` [Compound I-352, 5-((1S,4R,5R)-5-((5-cyclopropyl-3-(2,6-dichlorophenyl)isoxazol-4-yl)methoxy)-3-oxo-2-azabicyclo[2.2.1]heptan-2-yl)-N-((tetrahydro-2H-pyran-4-yl)sulfonyl)picolinamide]: 154% and 8. Take `Cc1cc(C(=O)NO)ccc1N1C[C@@H]2C[C@H]1C[C@H]2OCc1c(-c2c(Cl)cccc2Cl)noc1C1CC1` [Compound I-139, 4-[(1S,4S,5R)-5-{[5-cyclopropyl-3-(2,6-dichlorophenyl)-1,2-oxazol-4-yl]methoxy}-2-azabicyclo[2.2.1]heptan-2-yl]-N-hydroxy-3-methylbenzamide]: the Emax stood at 132%. The compound further had an EC50 under setting [1] of 0.631 nM. In the case of `O=C(O)c1ncc(N2C(=O)[C@@H]3C[C@H]2C[C@H]3OCc2c(-c3c(Cl)cccc3Cl)noc2C2CC2)cc1F` [Compound I-326, 5-[(1S,4R,5R)-5-{[5-cyclopropyl-3-(2,6-dichlorophenyl)-1,2-oxazol-4-yl]methoxy}-3-oxo-2-azabicyclo[2.2.1]heptan-2-yl]-3-fluoropyridine-2-carboxylic Acid], the Emax came out at 132%. The same compound showed a pEC50 under setting [1] of 7.1. For `CO[C@@H]1CCC[C@H]1S(=O)(=O)NC(=O)c1ncc(N2C(=O)[C@@H]3C[C@H]2C[C@H]3OCc2c(-c3c(Cl)cccc3Cl)noc2C2CC2)cc1F` [Compound I-348, 5-[(1S,4R,5R)-5-{[5-cyclopropyl-3-(2,6-dichlorophenyl)-1,2-oxazol-4-yl]methoxy}-3-oxo-2-azabicyclo[2.2.1]heptan-2-yl]-3-fluoro-N-{[(1R,2R)-2-methoxycyclopentyl]sulfonyl}pyridine-2-carboxamide] the same measures were 171% and 8. For `CC1(C)CC(S(=O)(=O)NC(=O)c2ncc(N3C(=O)[C@@H]4C[C@H]3C[C@H]4OCc3c(-c4c(Cl)cccc4Cl)noc3C3CC3)cc2F)CCO1` (stereo partly drawn) [Compound I-357, 5-((1S,4R,5R)-5-((5-cyclopropyl-3-(2,6-dichlorophenyl)isoxazol-4-yl)methoxy)-3-oxo-2-azabicyclo[2.2.1]heptan-2-yl)-N-((2,2-dimethyltetrahydro-2H-pyran-4-yl)sulfonyl)-3-fluoropicolinamide] the same measures were 166% and 8.4.
